Assay results: US12319699B2, “L-proline sulfonamide derivatives comprising pyrazolo[4,3-e]tetrazolo[4,5-b][1,2,4]triazine system, method of manufacturing thereof, uses thereof and pharmaceutical composition comprising the same” (UNIWERSYTET MEDYCZNY W BIALYMSTOKU, priority 2018, dated 2025)
Blank lines part the entries; values can stand above or below the molecule they belong to.

Key:
[1] = test system: AGS human gastric cancer cells; test: DNA biosynthesis, [3H]-thymidine incorporation; format: cell-based; conditions: 24-hour incubation
Procedure: AGS human gastric cancer cells (ATCC CRL-1739, Manassas, VA, USA) were cultured in DMEM (Dulbecco's Modified Eagle's Medium) supplemented with 10% fetal bovine serum (FBS), 2 mM glutamine, 50 U/ml penicillin, 50 μg/ml streptomycin at 37° C., in atmosphere containing 5% CO2. Subsequently, the cells were counted in a hemocytometer and transferred in the amount of […] cells per well in 1 ml of culture medium from Costar flasks (Sigma, USA) to Nunc 6-well plates (Wiesbaden, Germany). The cells were transferred using calcium-free phosphate buffer with the addition of 0.05% trypsin and 0.02% EDTA. […] Within the subsequent 24 hours the cells covered at least 80% of the surface of each plate well. The cells prepared in this manner were incubated with the examined compounds for 24 hours and then used for further experiments.
The effect of the examined compounds according to the invention on the process of DNA biosynthesis was assessed by measuring incorporation of [^3H]-thymidine into DNA of the examined cells. […] After 5 minutes, the cell lysate obtained was transferred to scintillation vials containing 2 ml of scintillation fluid and radioactivity was measured. […] The values from the examined samples were expressed as percentage of the control value. The significance level p was determined by the nonparametric Mann-Whitney U test by means of SigmaStat software. […]

[2] = test system: HT-29 colorectal cancer cells; test: Induction of apoptosis, Annexin V-FITC / propidium iodide flow cytometry; format: cell-based, human; conditions: 24 hours
Procedure: HT-29 human colorectal cancer cells (ATCC HTB-38, Manassas, VA, USA) were cultured in McCoy's 5A medium supplemented with 10% fetal bovine serum (FBS), 2 mM glutamine, 50 U/ml penicillin, 50 μg/ml of streptomycin at 37° C., in atmosphere containing 5% CO2. Subsequently, the cells were counted in a hemocytometer and were transferred in the amount of 1×10^6 cells per well in 1 ml of culture medium from Costar flasks (Sigma, USA) to Nunc 6-well plates (Wiesbaden, Germany). The cells were transferred using calcium-free phosphate buffer with the addition of 0.05% trypsin and 0.02% EDTA. […] Within the subsequent 24 hours the cells covered at least 80% of the surface of each plate well. The cells prepared in this manner were incubated with the examined compounds for 24 hours and then used for further experiments.
Induction of apoptosis was examined by a method using fluorescein isothiocyanate-labelled Annexin V (Annexin V-FITC) which forms complexes with phosphatidylserine in the presence of calcium ions. The complexes were determined using FITC Annexin V Apoptosis Detection Kit II (BD Biosciences, USA) and a flow cytometer BD FACSCanto H (BD Biosciences Systems, San Jose, CA, USA). The analysis of results was carried out by means of FACSDiva software (BD Biosciences Systems, San Jose, CA USA).
DLD-1 and HT-29 cells were incubated for 24 hours in an incubator at 37° C. in a 5% CO2 atmosphere with medium containing the examined compounds according to the invention at specific concentrations. Both examined compounds were used at a concentration of 1.5 μM and 3.0 μM. After the incubation period, the medium was removed, a binding buffer included in the kit was added and the cells were suspended in the buffer. In order to calibrate the apparatus two control samples, i.e. a positive one and a negative one, were prepared. The positive control constituted a reference of control cells in which apoptosis was induced by the addition of 3% formaldehyde. Three control samples were prepared. The first sample contained control cells and propidium iodide, the second sample contained control cells and Annexin V-FITC and the third sample contained control cells, propidium iodide and Annexin V-FITC. After adding 2 μl of 3% formaldehyde the cells were placed in a refrigerator for 10 minutes. Cells that were not treated with any agent constituted the negative control. The cells from the control samples and the cells treated by the examined compounds according to the invention (1×10^6 cells/ml) suspended in the buffer included in the kit were subjected to further examination. 200 μl suspension were taken from each examined sample and were transferred to test tubes. 3 μl Annexin V-FITC and 5 μl propidium iodide (PI) were added to each sample in room temperature and the samples were placed in a dark place for 15 minutes. Cell suspension prepared in this manner was analyzed within one hour in the flow cytometer BD FACSCanto II (BD Biosciences Systems, San Jose, CA, USA) by means of FACSDiva software. The results of the above experiment can be described as follows: live cells (double negative sample—lack of reaction with Annexin V and P), early apoptosis (Annexin V positive and PI negative sample), late apoptosis (Annexin V positive and PI positive sample) and necrosis (Annexin V negative and PI positive sample)

[3] = HT-29, 1.5 μM, listed as compound of Formula 2

- IC50 [1]: 550 ± 10 nM
SMILES: COC(=O)C1CCCN1S(=O)(=O)c1ccc(-n2nc(C)c3nc4nnnn4nc32)cc1 (stereo not drawn) [Compound of Formula 2, Methyl 1-[4-(7-methyl-5H-pyrazol[4,3-e]tetrazolo[4,5-b][1,2,4]triazyn-5-yl)phenylsulfonyl]pyrrolidine-2-carboxylate]
- Early apoptosis ([2]; HT-29, 1.5 μM): 9.0%
- Late apoptosis ([2]; HT-29, 1.5 μM): 4.7%
- Live cells ([2]; HT-29, 1.5 μM): 85.3%
- Necrosis ([2]; HT-29, 1.5 μM): 1.0%
- Early apoptosis [2, 3]: 9.0%
- Late apoptosis [2, 3]: 4.7%
- Necrosis [2, 3]: 1.0%
- Early apoptosis ([2]; HT-29, 3.0 μM): 9.6%
- Late apoptosis ([2]; HT-29, 3.0 μM): 9.4%
- Live cells ([2]; HT-29, 3.0 μM): 78.3%
- Necrosis ([2]; HT-29, 3.0 μM): 2.7%
- apoptotic cells (total) ([2]; HT-29, 3.0 μM): 19.0%
- Necrosis ([2]; HT-29, 3.0 μM, listed as compound of Formula 2): 2.7%

- IC50 [1]: 1050 ± 10 nM
SMILES: COC(=O)C1CC(O)CN1S(=O)(=O)c1ccc(-n2nc(C)c3nc4nnnn4nc32)cc1 (stereo not drawn) [Compound of Formula 3, Methyl 4-hydroxy-1-[4-(7-methyl-5H-pyrazolo[4,3-e]tetrazolo[4,5-b][1,2,4]triazyn-5-yl)phenylsulfonyl]pyrrolidine-2-carboxylate]
- Early apoptosis ([2]; HT-29, 1.5 μM): 14.5%
- Late apoptosis ([2]; HT-29, 1.5 μM): 16.0%
- Live cells ([2]; HT-29, 1.5 μM): 65.0%
- Necrosis ([2]; HT-29, 1.5 μM): 4.5%
- early and late apoptotic cells (total) ([2]; HT-29, 1.5 μM): 30.5%
- Necrosis ([2]; HT-29, 1.5 μM, listed as compound of Formula 3): 4.5%
- Early apoptosis ([2]; HT-29, 3.0 μM): 25.2%
- Late apoptosis ([2]; HT-29, 3.0 μM): 13.7%
- Necrosis ([2]; HT-29, 3.0 μM): 2.6%
